Numbers after ± are expanded uncertainties.
Conditions: Liquid, Calculated from knudsen effusion weight loss

In the case of `Cn1cc[n+](C)c1.O=S(=O)([N-]S(=O)(=O)C(F)(F)F)C(F)(F)F` [1,3-dimethylimidazolium bis((trifluoromethyl)sulfonyl)amide], the “vapor or sublimation pressure” value (475.62 K) is reported as 4.15e-05 ± 3.5e-06 kPa, the “vapor or sublimation pressure” value (477.6 K) is reported as 4.7e-05 ± 3.6e-06 kPa and the “vapor or sublimation pressure” value (479.6 K) is reported as 5.33e-05 ± 3.7e-06 kPa. For the same compound, the “vapor or sublimation pressure” value (481.59 K) was 6.01e-05 ± 3.8e-06 kPa, the “vapor or sublimation pressure” value (483.59 K) was 6.78e-05 ± 4.2e-06 kPa and the “vapor or sublimation pressure” value (485.6 K) was 7.63e-05 ± 4.7e-06 kPa. The “vapor or sublimation pressure” value (487.6 K) was 8.56e-05 ± 5.3e-06 kPa, the “vapor or sublimation pressure” value (489.62 K) was 9.57e-05 ± 5.9e-06 kPa and the “vapor or sublimation pressure” value (491.67 K) was 0.0001095 ± 6.7e-06 kPa. For the same compound, the “vapor or sublimation pressure” value (493.68 K) was 0.0001225 ± 7.5e-06 kPa.

In the case of `CCC[n+]1ccn(CC)c1.O=S(=O)([N-]S(=O)(=O)C(F)(F)F)C(F)(F)F`, the “vapor or sublimation pressure” value (463.58 K) is reported as 4.86e-05 ± 3.6e-06 kPa, the “vapor or sublimation pressure” value (465.61 K) is reported as 5.55e-05 ± 3.7e-06 kPa and the “vapor or sublimation pressure” value (467.59 K) is reported as 6.29e-05 ± 3.9e-06 kPa. The “vapor or sublimation pressure” value (469.6 K) was 7.12e-05 ± 4.4e-06 kPa, the “vapor or sublimation pressure” value (471.62 K) was 8.07e-05 ± 5e-06 kPa and the “vapor or sublimation pressure” value (473.62 K) was 9.11e-05 ± 5.6e-06 kPa. The “vapor or sublimation pressure” value (475.62 K) was 0.0001034 ± 6.3e-06 kPa, the “vapor or sublimation pressure” value (477.63 K) was 0.0001172 ± 7.2e-06 kPa and the “vapor or sublimation pressure” value (479.56 K) was 0.0001311 ± 8e-06 kPa. For the same compound, the “vapor or sublimation pressure” value (481.58 K) was 0.0001487 ± 9.1e-06 kPa, the “vapor or sublimation pressure” value (483.6 K) was 0.0001651 ± 1e-05 kPa and the “vapor or sublimation pressure” value (485.61 K) was 0.0001872 ± 1.2e-05 kPa. The “vapor or sublimation pressure” value (487.62 K) was 0.0002112 ± 1.3e-05 kPa and the “vapor or sublimation pressure” value (489.62 K) was 0.0002364 ± 1.5e-05 kPa.
